Data on one compound can be found in US20240285557A1, “PHARMACEUTICAL COMPOSITION COMPRISING LIPASE INHIBITOR FOR TREATMENT OR TREATMENT OF RNA VIRAL INFECTIONS” (priority 2021, published 2024).

For this assay, the system named is SARS-COV-2 KCDC03 strain (A lineage), KDCA51463 strain (Alpha lineage), and KDCA55905 strain (Beta lineage). In kind it is in vivo, Golden Syrian hamsters. The note with it: 40 mg kg^−1 day^−1 lipase inhibitor, 2.5 mg/kg/day remdesivir.

With `CCN(CC)C(=O)Nc1cccc(-c2ccc(N(C)C)cc2)c1` [DABPU-DE], the “pneumonia severity (and weight loss), comparison between treatment groups” value is recorded as “more improvement”.
